Consider seven compounds from patent publication US20240150298A1, “ANTIBACTERIAL COMPOUNDS” (Blacksmith Medicines, Inc., priority 2021, published 2024).

Structures are written as SMILES. Values after ≈ are worked out from the molar mass of the structure shown.

Experiment [1] deals with K. pneumoniae LpxC (Klebsiella pneumoniae subsp. pneumoniae, UniProt A6T4N9). In words: LpxC Binding Assay (Rapid Fire MS assay). Format: biochemical.
The target in experiment [2] is T1, P. aeruginosa LpxC (Pseudomonas aeruginosa, UniProt P47205).
T1 sequence (P47205 1-303): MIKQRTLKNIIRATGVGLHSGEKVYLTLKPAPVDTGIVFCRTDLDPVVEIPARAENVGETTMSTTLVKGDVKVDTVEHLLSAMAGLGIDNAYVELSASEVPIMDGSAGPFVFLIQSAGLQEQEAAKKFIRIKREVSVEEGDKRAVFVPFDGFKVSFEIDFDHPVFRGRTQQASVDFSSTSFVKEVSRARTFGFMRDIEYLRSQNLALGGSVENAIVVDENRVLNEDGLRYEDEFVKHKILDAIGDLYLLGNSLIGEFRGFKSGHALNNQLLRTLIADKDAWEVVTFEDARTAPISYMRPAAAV
In words: LpxC Binding Assay (Rapid Fire MS assay). The class given is biochemical. The protocol:
(§1) IC50 values against E. coli and P. aeruginosa LpxC are determined using a Rapid Fire MS assay as previously described J. Med. Chem. 2012, 55, 1662-1670.

Experiment [3] concerns the target E. coli LpxC (Escherichia coli, UniProt P0A725). Nature of the experiment: LpxC Binding Assay (Rapid Fire MS assay). Format: biochemical. On the procedure:
as §1

The subject of experiment [4] is K. pneumoniae ATCC13883. In words: Bacterial susceptibility testing, MIC by broth microdilution (CLSI). The note with it: Klebsiella pneumoniae, ATCC13883, broth microdilution, 35° C., 18-24 h; read-out: MIC K. pneumoniae ATCC13883. Format: cell-based. Summed up:
(§2)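 Broth microdilution per CLSI in cation-adjusted Mueller-Hinton broth, inoculum 3×10^5–7×10^5 CFU/mL, 2-fold serial drug dilutions in DMSO. Incubated in ambient air at 35° C for 18-24 h. MIC taken as lowest concentration preventing visible growth (OD600 nm<0.05).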

Experiment [5] relates to P. aeruginosa 209 PAO1. The description is as above. The class given is cell-based. As to conditions: Pseudomonas aeruginosa, PAO1, broth microdilution, 35° C., 18-24 h; read-out: MIC P. aeruginosa 209 PAO1. Summed up: as §2
For experiment [6], the system named is P. aeruginosa ATCC27835. The experiment is described as above. As to conditions: Pseudomonas aeruginosa, ATCC27835, broth microdilution, 35° C., 18-24 h; read-out: MIC P. aeruginosa ATCC27835. The class given is cell-based. Summed up: as §2
Experiment [7] relates to E. coli ATCC25922. Described as above. Format: cell-based. As to conditions: Escherichia coli, ATCC25922, broth microdilution, 35° C., 18-24 h; read-out: MIC E. coli ATCC25922. Summed up: as §2

Sequence of E. coli LpxC (P0A725 whole entry): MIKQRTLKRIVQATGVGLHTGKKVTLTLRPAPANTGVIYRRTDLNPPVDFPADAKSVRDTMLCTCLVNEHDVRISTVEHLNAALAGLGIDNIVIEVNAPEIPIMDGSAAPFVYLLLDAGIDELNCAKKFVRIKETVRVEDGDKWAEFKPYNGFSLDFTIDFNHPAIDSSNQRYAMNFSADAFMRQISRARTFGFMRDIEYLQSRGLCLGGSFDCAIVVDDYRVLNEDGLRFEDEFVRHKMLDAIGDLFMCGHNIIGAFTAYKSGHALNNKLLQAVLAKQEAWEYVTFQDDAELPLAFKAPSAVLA
Sequence of K. pneumoniae LpxC (A6T4N9 whole entry): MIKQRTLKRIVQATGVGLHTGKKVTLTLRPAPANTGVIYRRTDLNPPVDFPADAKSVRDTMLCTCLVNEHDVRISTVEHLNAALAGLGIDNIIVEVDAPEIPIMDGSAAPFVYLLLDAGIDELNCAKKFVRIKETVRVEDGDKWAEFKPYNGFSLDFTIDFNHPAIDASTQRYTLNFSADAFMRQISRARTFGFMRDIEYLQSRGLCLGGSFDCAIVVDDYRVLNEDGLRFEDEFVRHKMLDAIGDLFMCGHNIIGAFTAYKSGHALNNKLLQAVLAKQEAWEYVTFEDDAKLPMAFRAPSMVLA

On to `C[C@H](O)c1nccn1[C@@H](/C=C/c1ccc(-c2ccc(OC[C@@H](O)CO)cc2)cc1)CO` [Compound 24, (S)-3-((4′-((S,E)-4-hydroxy-3-(2-((S)-1-hydroxyethyl)-1H-imidazol-1-yl)but-1-en-1-yl)-[1,1′-biphenyl]-4-yl)oxy)propane-1,2-diol], for which the IC50 is 1.1 nM in experiment [1], 17.5 nM in experiment [2] and 0.5 nM in experiment [3]. The MIC was 8 µg/mL (≈ 18.8 µM) in experiment [4], 2 µg/mL (≈ 4.71 µM) in experiment [5], 2 µg/mL (≈ 4.71 µM) in experiment [6] and 2 µg/mL (≈ 4.71 µM) in experiment [7].

Turning to `C[C@H](O)c1nccn1[C@@H](/C=C/c1ccc(-c2ccc(OC[C@H](O)CN)cc2)cc1)CO` [Compound 29, (S,E)-4-(4′-((R)-3-amino-2-hydroxypropoxy)-[1,1′-biphenyl]-4-yl)-2-(2-((S)-1-hydroxyethyl)-1H-imidazol-1-yl)but-3-en-1-ol], the IC50 was determined as 9.1 nM in experiment [1], 120 nM in experiment [2] and 5.9 nM in experiment [3]. Besides, the MIC in experiment [4] is 64 µg/mL (≈ 151 µM); in experiment [5], 8 µg/mL (≈ 18.9 µM); in experiment [6], 4 µg/mL (≈ 9.44 µM); in experiment [7] it was 32 µg/mL (≈ 75.6 µM).

For the compound `CCOCC(O)COc1ccc(-c2ccc(/C=C/[C@@H](CO)n3ccnc3[C@H](C)O)cc2)cc1` (mixture of isomers) [Compound 36, (2S,E)-4-(4′-(3-ethoxy-2-hydroxypropoxy)-[1,1′-biphenyl]-4-yl)-2-(2-((S)-1-hydroxyethyl)-1H-imidazol-1-yl)but-3-en-1-ol], the results for the IC50 in experiment [1], in experiment [2] and in experiment [3] were 0.8 nM, 21.3 nM and less than 0.5 nM, respectively. Besides, the results for the minimum inhibitory concentration (MIC) in experiment [4], in experiment [5] and in experiment [6] were 1 µg/mL (≈ 2.21 µM), 2 µg/mL (≈ 4.42 µM) and 4 µg/mL (≈ 8.84 µM), respectively.

As to `C[C@H](O)c1nccn1[C@@H](/C=C/c1ccc(-c2ccc(OC[C@@H](O)CO)cc2F)cc1)CO` [Compound 32, (S)-3-((2-fluoro-4′-((S,E)-4-hydroxy-3-(2-((S)-1-hydroxyethyl)-1H-imidazol-1-yl)but-1-en-1-yl)-[1,1′-biphenyl]-4-yl)oxy)propane-1,2-diol], the IC50 was 1.8 nM in experiment [1], 13.4 nM in experiment [2] and 1 nM in experiment [3]. Also, the MIC stood at 8 µg/mL (≈ 18.1 µM) in experiment [4], 4 µg/mL (≈ 9.04 µM) in experiment [5], 4 µg/mL (≈ 9.04 µM) in experiment [6] and 2 µg/mL (≈ 4.52 µM) in experiment [7].

Take `C[C@H](O)c1nccn1[C@@H](/C=C/c1ccc(-c2ccc(OC3CCN(CCO)CC3)cc2)cc1)CCO` [Compound 18, (R,E)-3-(2-((S)-1-hydroxyethyl)-1H-imidazol-1-yl)-5-(4′-((1-(2-hydroxyethyl)piperidin-4-yl)oxy)-[1,1′-biphenyl]-4-yl)pent-4-en-1-ol]: the IC50 was determined as 5.4 nM in experiment [1], 50.1 nM in experiment [2] and 3.6 nM in experiment [3]. The MIC in experiment [4] was 16 µg/mL (≈ 32.5 µM); in experiment [5], 4 µg/mL (≈ 8.14 µM); in experiment [6] it was 4 µg/mL (≈ 8.14 µM); in experiment [7] it was 8 µg/mL (≈ 16.3 µM).

On to `C[C@H](O)c1nccn1[C@@H](/C=C/c1ccc(-c2ccc(C3CC(NCCC#N)C3)cc2)cc1)CO` (stereo partly drawn) [Compound 37, 3-((3-(4′-((S,E)-4-hydroxy-3-(2-((S)-1-hydroxyethyl)-1H-imidazol-1-yl)but-1-en-1-yl)-[1,1′-biphenyl]-4-yl)cyclobutyl)amino)propanenitrile], for which the IC50 in experiment [1] is 0.7 nM; in experiment [2], 15.2 nM; in experiment [3], less than 0.5 nM. The MIC in experiment [4] worked out at 0.5 µg/mL (≈ 1.1 µM); in experiment [5] it was 2 µg/mL (≈ 4.38 µM); in experiment [6], 4 µg/mL (≈ 8.76 µM).

Take `C[C@H](O)c1nccn1[C@@H](/C=C/c1ccc(-c2ccc(O[C@H]3COC[C@@H]3N)cc2)cc1)CO` (racemic) [Compound 34, (S,E)-4-(4′-(((trans)-4-aminotetrahydrofuran-3-yl)oxy)-[1,1′-biphenyl]-4-yl)-2-(2-((S)-1-hydroxyethyl)-1H-imidazol-1-yl)but-3-en-1-ol]: the IC50 was determined as 1.9 nM in experiment [1], 18.9 nM in experiment [2] and 1.1 nM in experiment [3]. The MIC in experiment [4] was 2 µg/mL (≈ 4.59 µM); in experiment [5] it was 0.5 µg/mL (≈ 1.15 µM); in experiment [6], 4 µg/mL (≈ 9.18 µM).
